According to patent US20260083126A1, “ANTIMICROBIAL COMPOSITIONS” (AHV International B.V., priority 2022, published 2026):
Entries after “also recorded” stand apart in the source; their conditions may differ.

Assays:
Type in all cases: cell-based
[1] = tested on: Candida albicans Y01-19; assay: MBC assay (Minimal Bactericide Concentration); details: for effect at concentrations of growth inhibition (MIC90), C. albicans: MBC compared to MIC90; for MBC Candida albicans: Y01-19, n = 3, no colonies on agar plate after 20 h
Method: (§1) Hereafter, the stock solutions of the compounds were used in three repetitions in a minimal inhibitory concentration (MIC) assay at a 2-fold dilution range with various bacteria from the gram-positive and gram-negative group and a yeast, Candida albicans. The concentrations that show only less than 10% growth after 24 h were considered the MIC90-values, whereas the concentrations that show 50% growth after 24 h when compared to the bacterial growth control were considered the MIC50-values. Escherichia coli and Staphylococcus aureus were used as representatives for a gram-negative bacteria and gram-positive bacteria, respectively. Furthermore, the yeast C. albicans was also tested.
(§2) The Minimal Bactericide Concentration (MBC) of two compounds were determined, namely diisopropyl thiosulfonate and di-n-propyl thiosulfonate. […] This assay was performed per strain of E. coli, S. aureus, and C. albicans three independent times. Therefore, the standard deviation could also be calculated (Table 10).

[2] = tested on: Escherichia coli ATCC 25922; assay: MBC assay (Minimal Bactericide Concentration); details: for MBC Escherichia coli: ATCC 25922, n = 3, no colonies on agar plate after 20 h; for effect at concentrations of growth inhibition (MIC90), E. coli: MBC compared to MIC90
Method: as §1, §2

[3] = tested on: Staphylococcus aureus LUH 14616; assay: MBC assay (Minimal Bactericide Concentration); details: for MBC Staphylococcus aureus: LUH 14616, n = 3, no colonies on agar plate after 20 h; for effect at concentrations of growth inhibition (MIC90), S. aureus: higher MBC values compared to MIC90 values
Method: as §1, §2

[4] = tested on: plant pathogens; assay: Colony diameter on agar plates, all tested fungi (conclusion); details: conclusion of Example 7b
Method: In particular, the antimicrobial activity of bis(p-chlorophenyl) disulfide (AM2), bis(p-fluorophenyl) disulfide (AM3), bis(p-chlorophenyl) thiosulfonate (AM6) and diisopropyl thiosulfonate (AM8) of the invention is tested against pathogenic fungi selected from Pythium aphanidermatum, Phytophthora cinnamiomi, Fusarium oxysporum, Sclerotinia sclerotiorum, Rhizoctonia solani and Botrytis cinerea.
Experimental design. The effects of mentioned compounds on growth of the fungi were tested on agar plates with various dilutions of the compounds. The fungus was inoculated in the middle of the agar plate. At various time intervals the diameter of the colony was measured.
The fungi were pregrown on appropriate agar media, for example potato dextrose agar or malt extract agar at 24 C. After 3, 7, 10 and 14 days of incubation at 24 C, the diameter of the fungal colonies were measured on the agar plates. Since the agar plates have a diameter of 8 cm, this was the maximum colony size.
Agar media were prepared with various dilutions of bis(p-chlorophenyl) disulfide (AM2), bis(p-fluorophenyl) disulfide (AM3), bis(p-chlorophenyl) thiosulfonate (AM6) and diisopropyl thiosulfonate (AM8).
The test compounds were added to the agar media when the liquid agar medium was still hand-warm to prevent heat-dependent decomposition of the compounds. 50-fold concentrated stock solutions of the antimicrobial compounds of each dilution were prepared in 50% tween-80 and 50% DMSO (in this way the concentrations DMSO and tween 80 were the same in all agar plates). The following concentrations of the antimicrobial compounds were used for each strain in agar plates: 1.0 mM, 0.50 mM, 0.25 mM, 0.125 mM and 0.063 mM in the corresponding medium as indicated in table 12. Each concentration was tested in 4-fold in 8 cm diameter petridishes and each dish contained 11 ml agar medium.
Hereafter, the plates were inoculated in the middle of the dish. Incubation took place at 24 C. Colony diameters were measured at t=3, 7, 10 and 14 days after inoculation. Since the diameter of the petri dishes are 8 cm this diameter was the maximal diameter that was measured.

[5] = tested on: Staphylococcus aureus LUH14616; assay: Resistance development on repeated exposure (19 passages)
Method: Experimental design. Potential resistance to AM-8 was assessed as described by Habets and Brockhurst (2012) (Therapeutic antimicrobial peptides may compromise natural immunity. Biol Lett 8:416-418). Briefly, log phase bacteria (S. aureus LUH 14616) were diluted in RPMI-mod to a concentration of 2×10^6 CFU/ml. Next, 50 μl of this bacterial suspension were mixed with 50 μl of a range of dilutions of AM-8 or—as comparator-rifampicin in v-bottom 96-wells plates. Thereafter, the plates were covered with a plastic seal and incubated for 24 hrs at 37° C. in a shaking incubator (200 rpm). The plates were then centrifuged for 5 min at 2,000 rpm and the growth inhibition was determined. To start the resistance development testing, 100 μl of a mid-log bacterial suspension containing 2×10^6 CFU/ml were mixed with 150 μl of RPMI-mod and 5 μl of this diluted bacterial suspension were applied to v-bottom wells containing a dilution range of AM-8 or antibiotics (various concentrations below and above MIC) in RPMI-mod (RPMI 1640 modified with 20 mM Hepes and L-glutamine and without sodium bicarbonate (Sigma-Aldrich); further referred to as RPMI-mod). After 24 hrs at 37° C. in a shaking incubator (200 rpm) the growth inhibition was determined. 100 μl of the bacterial suspension from the 0.5×MIC wells were mixed with 150 μl of RPMI-mod and 5 μl of the diluted bacterial suspension were used to inoculate a new 96-wells plate containing a dilution series of AM-8 or rifampicin, and these mixtures were then incubated as described above. If resistance developed, the concentration range of AM-8 and/or antibiotic was adjusted accordingly. This was repeated 19 times. Results are expressed as the fold-increase in MIC compared to the MIC at the start of the experiment.

[6] = listed as diisopropyl thiosulfonate Batch A
[7] = listed as diisopropyl thiosulfonate Batch C

Row | Compound | effect at concentrations of growth inhibition (MIC90), C. albicans [1] | MBC Escherichia coli [2] [µM] | effect at concentrations of growth inhibition (MIC90), E. coli [2] | effect at concentrations of growth inhibition (MIC90), S. aureus [3] | growth of plant pathogens [4] | further results
1 | CCCSS(=O)(=O)CCC [Di-n-propyl thiosulfonate, reference compound] | bactericidal effect | 208 | bactericidal effect | bacteriostatic effect |  | MBC Candida albicans [1]: 25 µM; MBC Staphylococcus aureus [3]: 1083 µM
2 | CC(C)SS(=O)(=O)C(C)C [Di-isopropyl thiosulfonate] | bactericidal effect | 219 | bactericidal effect | bacteriostatic effect | clearly inhibited | MBC Candida albicans [1, 6]: 75 µM; MBC Candida albicans [1, 7]: 50 µM; MBC Staphylococcus aureus [3, 6]: 1500 µM; MBC Staphylococcus aureus [3, 7]: 1833 µM; resistance development ([5]; 19 passages, listed as AM-8): no resistance development; also recorded: little/no resistance; fold-increase in MIC compared to the MIC at the start ([5]; within 19 passages, two batches, seen occasionally): ≤ 2 fold
3 | Clc1ccc(SSc2ccc(Cl)cc2)cc1 [Bis (4-chlorophenyl) disulfide, Bis(4-chlorophenyl) disulfide] |  |  |  |  | clearly inhibited | 
4 | O=S(=O)(Sc1ccc(Cl)cc1)c1ccc(Cl)cc1 [Bis (4-chlorophenyl) thiosulfonate, Bis(4-chlorophenyl) thiosulfonate] |  |  |  |  | clearly inhibited | 
5 | Fc1ccc(SSc2ccc(F)cc2)cc1 [Bis (4-fluorophenyl) disulfide, Bis(4-fluorophenyl) disulfide] |  |  |  |  | clearly inhibited | 
